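Step 1: Grow cells in 96-well plates. Step 2: Expose to compound for 48 hours at 5 concentrations. Step 3: Interpolate endpoints linearly; if unreached, use highest concentration. GI50 = concentration required for 50% inhibition of growth. Definition used: TGI = concentration required for complete inhibition of growth.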
The compounds below were run on MCF7 breast (assay: inhibition of tumour cell growth, NCI panel, 48 h).

Row | Structure (SMILES) | GI50 [µM] | TGI [µM]
1 | COc1cc[nH]c1/C=C1\C(=O)Nc2ccccc21 | 5.79 | > 25
2 | Cc1cn2c(/C=C3/C(=O)N(C)c4ccccc43)c(C)nc2s1 | 1.02 | 13.3
3 | COc1cc(NC(=O)c2cc(O)c(CC=C(C)C)c(O)c2)cc2c1O[C@]1(C)CC[C@@H](O)C(C)(C)[C@H]1C2 | 2.1 | 15.4
4 | Cc1cc(S(=O)(=O)Nc2nc(N)nc(N3N=CCC3C)n2)c(SCC(=O)O)cc1Cl (stereo not given) | – | > 10
5 | Cc1ccc(C(=NN=C(N)N)c2ccc(C)cc2)cc1 | 0.396 | 8.53
6 | Clc1nc(Cl)c2ncn(Cc3cccc(COc4cccc(OCc5cccc(Cn6cnc7c(Cl)nc(Cl)nc76)c5)c4)c3)c2n1 | 31.1 | > 100
7 | CCS(=O)(=O)c1ccc(OC)c(Nc2ncc(-c3cccc(OC)c3)o2)c1 | > 18.3 | > 25
8 | CCCCN=C(N)c1ccc(OCCSCCOc2ccc(C(N)=NCCCC)cc2)cc1 | 3.34 | > 100
9 | CC(C)c1ccc(C(=O)Nc2sc3c(c2C(N)=O)CCC(=O)C3)cc1 | 0.466 | 5.16

Each compound was assayed on M14 melanoma (assay: inhibition of tumour cell growth, NCI panel, 48 h).

Row | Structure (SMILES) | GI50 [µM] | TGI [µM]
10 | COc1cc[nH]c1/C=C1\C(=O)Nc2ccccc21 | 4.98 | > 25
11 | Cc1cn2c(/C=C3/C(=O)N(C)c4ccccc43)c(C)nc2s1 | 5.31 | > 100
12 | COc1cc(NC(=O)c2cc(O)c(CC=C(C)C)c(O)c2)cc2c1O[C@]1(C)CC[C@@H](O)C(C)(C)[C@H]1C2 | 2.94 | 13.5
13 | Cc1cc(S(=O)(=O)Nc2nc(N)nc(N3N=CCC3C)n2)c(SCC(=O)O)cc1Cl (stereo not given) | – | > 10
14 | Cc1ccc(C(=NN=C(N)N)c2ccc(C)cc2)cc1 | 0.415 | 2.15
15 | Clc1nc(Cl)c2ncn(Cc3cccc(COc4cccc(OCc5cccc(Cn6cnc7c(Cl)nc(Cl)nc76)c5)c4)c3)c2n1 | 26.1 | > 100
16 | CCS(=O)(=O)c1ccc(OC)c(Nc2ncc(-c3cccc(OC)c3)o2)c1 | 14.6 | > 25
17 | CCCCN=C(N)c1ccc(OCCSCCOc2ccc(C(N)=NCCCC)cc2)cc1 | 28.4 | > 100
18 | CC(C)c1ccc(C(=O)Nc2sc3c(c2C(N)=O)CCC(=O)C3)cc1 | 0.522 | 2.44

What follows are compounds tested on LOX IMVI melanoma (assay: inhibition of tumour cell growth, NCI panel, 48 h).

Row | Structure (SMILES) | GI50 [µM] | TGI [µM]
19 | COc1cc[nH]c1/C=C1\C(=O)Nc2ccccc21 | 7.68 | > 25
20 | Cc1cn2c(/C=C3/C(=O)N(C)c4ccccc43)c(C)nc2s1 | 11.6 | > 100
21 | COc1cc(NC(=O)c2cc(O)c(CC=C(C)C)c(O)c2)cc2c1O[C@]1(C)CC[C@@H](O)C(C)(C)[C@H]1C2 | 3.07 | 19.1
22 | Cc1cc(S(=O)(=O)Nc2nc(N)nc(N3N=CCC3C)n2)c(SCC(=O)O)cc1Cl (stereo not given) | – | > 10
23 | Cc1ccc(C(=NN=C(N)N)c2ccc(C)cc2)cc1 | 0.587 | 3.38
24 | Clc1nc(Cl)c2ncn(Cc3cccc(COc4cccc(OCc5cccc(Cn6cnc7c(Cl)nc(Cl)nc76)c5)c4)c3)c2n1 | 23.9 | > 100
25 | CCS(=O)(=O)c1ccc(OC)c(Nc2ncc(-c3cccc(OC)c3)o2)c1 | 6.12 | 24.8
26 | CCCCN=C(N)c1ccc(OCCSCCOc2ccc(C(N)=NCCCC)cc2)cc1 | 9.46 | > 100
27 | CC(C)c1ccc(C(=O)Nc2sc3c(c2C(N)=O)CCC(=O)C3)cc1 | 0.373 | 1.71

These compounds were tested on A498 renal (assay: inhibition of tumour cell growth, NCI panel, 48 h).

Row | Structure (SMILES) | GI50 [µM] | TGI [µM]
28 | COc1cc[nH]c1/C=C1\C(=O)Nc2ccccc21 | 5.34 | > 25
29 | Cc1cn2c(/C=C3/C(=O)N(C)c4ccccc43)c(C)nc2s1 | 11.9 | 79.5
30 | COc1cc(NC(=O)c2cc(O)c(CC=C(C)C)c(O)c2)cc2c1O[C@]1(C)CC[C@@H](O)C(C)(C)[C@H]1C2 | 1.21 | 7.94
31 | Cc1cc(S(=O)(=O)Nc2nc(N)nc(N3N=CCC3C)n2)c(SCC(=O)O)cc1Cl (stereo not given) | – | > 10
32 | Cc1ccc(C(=NN=C(N)N)c2ccc(C)cc2)cc1 | 0.395 | 2.61
33 | Clc1nc(Cl)c2ncn(Cc3cccc(COc4cccc(OCc5cccc(Cn6cnc7c(Cl)nc(Cl)nc76)c5)c4)c3)c2n1 | > 100 | > 100
34 | CCS(=O)(=O)c1ccc(OC)c(Nc2ncc(-c3cccc(OC)c3)o2)c1 | 0.728 | 4.28
35 | CCCCN=C(N)c1ccc(OCCSCCOc2ccc(C(N)=NCCCC)cc2)cc1 | 15.2 | > 100
36 | CC(C)c1ccc(C(=O)Nc2sc3c(c2C(N)=O)CCC(=O)C3)cc1 | 2.33 | 8.52

The compounds below were run on SK-MEL-2 melanoma (assay: inhibition of tumour cell growth, NCI panel, 48 h).

Row | Structure (SMILES) | GI50 [µM] | TGI [µM]
37 | COc1cc[nH]c1/C=C1\C(=O)Nc2ccccc21 | 3.55 | 15.7
38 | Cc1cn2c(/C=C3/C(=O)N(C)c4ccccc43)c(C)nc2s1 | 5.33 | 58.3
39 | COc1cc(NC(=O)c2cc(O)c(CC=C(C)C)c(O)c2)cc2c1O[C@]1(C)CC[C@@H](O)C(C)(C)[C@H]1C2 | 1.33 | 15.1
40 | Cc1cc(S(=O)(=O)Nc2nc(N)nc(N3N=CCC3C)n2)c(SCC(=O)O)cc1Cl (stereo not given) | – | > 10
41 | Cc1ccc(C(=NN=C(N)N)c2ccc(C)cc2)cc1 | 0.78 | 2.94
42 | Clc1nc(Cl)c2ncn(Cc3cccc(COc4cccc(OCc5cccc(Cn6cnc7c(Cl)nc(Cl)nc76)c5)c4)c3)c2n1 | 17.1 | > 100
43 | CCS(=O)(=O)c1ccc(OC)c(Nc2ncc(-c3cccc(OC)c3)o2)c1 | 13.2 | > 25
44 | CCCCN=C(N)c1ccc(OCCSCCOc2ccc(C(N)=NCCCC)cc2)cc1 | 5.36 | 21.9
45 | CC(C)c1ccc(C(=O)Nc2sc3c(c2C(N)=O)CCC(=O)C3)cc1 | 2.16 | 5.25

Reference: PubChem BioAssay (NCI)
